31 compounds from ChEMBL document CHEMBL2331204, “Fluorinated N,N'-diarylureas as AMPK activators” (Bioorg Med Chem Lett, 2013) can be followed below.

The target in assay [1] is 5'-AMP-activated protein kinase catalytic subunit alpha-1 (Homo sapiens) (UniProt Q13131). Description: Activation of AMPKalpha in human LS 174T cells assessed as phosphorylation at T172 at 1 to 3 uM by Western blotting analysis relative to urea-3,4-diCl. Type of assay: cell-based. The note with it: LS174T.
In assay [2] the test system is LS174T. Description: Cytotoxicity against human LS 174T cells assessed as growth inhibition after 2 to 4 days. It is filed as functional, cell-based.
Another assay concerns SW480. The experiment in a line: Cytotoxicity against human SW480 cells assessed as growth inhibition after 2 to 4 days. It is filed as functional, cell-based.
Assay [3] has as its system LS174T. The experiment in a line: Inhibition of p70S6K phosphorylation in human LS 174T cells by Western blotting analysis. It is filed as cell-based.
Assay [4] has as its target 5'-AMP-activated protein kinase catalytic subunit alpha-1 (Homo sapiens) (UniProt Q13131). The experiment in a line: Activation of AMPKalpha in human LS 174T cells assessed as phosphorylation at T172 at 1 to 3 uM by Western blotting analysis. The following applies: LS174T. Type of assay: cell-based.
Assay [5] deals with LS174T. Description: Inhibition of p70S6K in human LS 174T cells assessed as decrease in S6 phosphorylation by Western blotting analysis. Type of assay: cell-based.
In assay [6] the test system is LS174T. The experiment in a line: Activation of AKT in human LS 174T cells assessed as phosphorylation at Ser473 at 3 uM by Western blotting analysis. Type of assay: cell-based.

Active and inactive are the calls of the source. The rule behind the calls is not given here.

5'-AMP-activated protein kinase catalytic subunit alpha-1 (Homo sapiens), sequence (Q13131 whole entry, looked up): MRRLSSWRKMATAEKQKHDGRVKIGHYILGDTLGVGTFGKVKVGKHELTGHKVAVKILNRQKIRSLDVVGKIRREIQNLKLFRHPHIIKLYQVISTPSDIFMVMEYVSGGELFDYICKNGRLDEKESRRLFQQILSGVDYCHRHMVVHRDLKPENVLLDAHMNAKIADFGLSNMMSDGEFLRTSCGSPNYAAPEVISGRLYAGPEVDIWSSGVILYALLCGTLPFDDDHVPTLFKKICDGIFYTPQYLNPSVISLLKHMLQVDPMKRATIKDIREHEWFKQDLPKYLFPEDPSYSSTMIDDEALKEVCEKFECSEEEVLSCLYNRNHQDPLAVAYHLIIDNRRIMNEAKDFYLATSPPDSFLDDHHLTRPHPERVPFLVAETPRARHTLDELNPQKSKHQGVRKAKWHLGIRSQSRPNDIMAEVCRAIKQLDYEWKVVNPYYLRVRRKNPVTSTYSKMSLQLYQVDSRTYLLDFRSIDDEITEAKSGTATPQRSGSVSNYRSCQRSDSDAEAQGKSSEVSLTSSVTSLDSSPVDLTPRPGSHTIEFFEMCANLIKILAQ

With `O=C(Nc1ccc(OC(F)(F)F)cc1)Nc1cc(F)c(F)c(F)c1`, the fold change (FC) in assay [1] worked out at 0.99. Still for that read-out and setting: the figure for `O=C(Nc1ccc(SC(F)(F)F)cc1)Nc1ccc(SC(F)(F)F)c(Cl)c1` is 0.93; for `O=C(Nc1ccc(OC(F)(F)F)cc1)Nc1cc(Cl)c(Cl)c(Cl)c1` it is 0.96; for `N#Cc1ccc(NC(=O)Nc2ccc(SC(F)(F)F)cc2)cc1` it is 1.05. On the same count and under the same terms, the figure for `O=C(Nc1ccc(SC(F)(F)F)cc1)Nc1cc(F)c(F)cc1F` is 1.21; for `O=C(Nc1ccc(OC(F)(F)F)cc1)Nc1cc(F)cc(F)c1` it is 1.44; for `O=C(Nc1ccc(SC(F)(F)F)cc1)Nc1ccc(F)c(Cl)c1` it is 1.05. On the same count and under the same terms, the figure for `O=C(Nc1ccc(OC(F)(F)F)cc1)Nc1cc(F)c(F)c(F)c1F` is 0.8. With `O=C(Nc1ccc(SC(F)(F)F)cc1)Nc1cc(F)c(F)c(F)c1`, the “growth inhibition (GI)” value with LS174T [2] and in the assay on SW480 was “Active” each time. In addition, the fold change (FC) in assay [1] was 2.02. As for `O=C(Nc1ccc(SC(F)(F)F)cc1)Nc1cc(F)c(F)c(F)c1F`, the fold change (FC) in assay [1] stood at 2.48. On to `CNC(=O)c1cc(Oc2ccc(NC(=O)Nc3ccc(Cl)c(C(F)(F)F)c3)cc2)ccn1`, for which the inhibition result in the assay with LS174T [3] and in the assay with LS174T [5] was “Active” throughout. For the same compound, the outcome in assay [4] was inactive. Regarding `O=C(Nc1ccc(SC(F)(F)F)cc1)Nc1ccc(C(F)(F)F)cc1`, the fold change (FC) in assay [1] worked out at 1.19. Regarding `O=C(Nc1cc(Cl)cc(Cl)c1)Nc1cccc(SC(F)(F)F)c1`, the fold change (FC) in assay [1] is 1.94. Still for that read-out and setting: the value for `O=C(Nc1ccc(OC(F)(F)F)cc1)Nc1ccc(C(F)(F)F)cc1` was 2.37. As to `O=C(Nc1ccc(SC(F)(F)F)cc1)Nc1cccc(Cl)c1F`, in assay [1], the fold change (FC) stood at 0.72.

For `O=C(Nc1ccc(C(F)(F)F)cc1)Nc1cc(F)c(F)c(F)c1`, the fold change (FC) in assay [1] is 4.

In the case of `O=C(Nc1ccc(SC(F)(F)F)cc1)Nc1cc(Cl)cc(Cl)c1`, in assay [1], the fold change (FC) was found to be 1.59. Same read-out and setting: the figure for `O=C(Nc1ccc(SC(F)(F)F)cc1)Nc1ccc(F)c(F)c1` is 1.11; for `O=C(Nc1cc(F)cc(F)c1)Nc1cccc(SC(F)(F)F)c1` it is 1.83; for `O=C(Nc1ccc(SC(F)(F)F)cc1)Nc1c(F)c(F)c(C(=O)O)c(F)c1F` it is 0.86.

On to `O=C(Nc1ccc(OC(F)(F)F)cc1)Nc1ccc(SC(F)(F)F)c(Cl)c1`, for which the fold change (FC) in assay [1] came out at 2.6. Consider `O=C(Nc1ccc(SC(F)(F)F)cc1)Nc1cc(F)cc(F)c1`, for which the fold change (FC) in assay [1] is 1.14. Still for that read-out and setting: the value for `O=C(Nc1ccc(Cl)cc1)Nc1ccc(SC(F)(F)F)cc1` was 0.71.

Take `O=C(Nc1ccc(SC(F)(F)F)cc1)Nc1ccc(Cl)c(C(F)(F)F)c1`: the fold change (FC) in assay [1] is 1.64.

As to `N#Cc1cc(NC(=O)Nc2ccc(SC(F)(F)F)cc2)ccc1F`, the fold change (FC) in assay [1] was found to be 0.96. Regarding `O=C(Nc1ccc(SC(F)(F)F)cc1)Nc1cc(Cl)c(Cl)c(Cl)c1`, the fold change (FC) in assay [1] was found to be 2.32. For `O=C(Nc1ccc(C(F)(F)F)cc1)Nc1cccc(SC(F)(F)F)c1`, the fold change (FC) in assay [1] stood at 2.16. `O=C(Nc1ccc(SC(F)(F)F)cc1)Nc1cccc(F)c1`: in assay [1], the fold change (FC) was determined as 0.74. The same measure, in the same setting: the value for `O=C(Nc1ccc(OC(F)(F)F)cc1)Nc1cc(Cl)cc(Cl)c1` was 0.82. Still for that read-out and setting: the figure for `O=C(Nc1ccc(SC(F)(F)F)cc1)Nc1ccc(F)c(C(F)(F)F)c1` is 1.52. On to `O=C(Nc1ccc(SC(F)(F)F)cc1)Nc1ccc(Cl)c(Cl)c1`, for which the result in the assay on LS174T [6] was inactive. Besides, the “growth inhibition (GI)” value in the assay with LS174T [2] and in the assay with SW480 was “Active” throughout. In addition, the inhibition result with LS174T [3] and in the assay on LS174T [5] was “Active” each time. Also, the outcome in assay [4] was Active.
